# Laboratory results published in patent US20030096015A1, “Cytogenic/nucleogenic healing” (priority 1997, published 2003).
# Tested on: epithelial cells
# Assay type: cell-based, human
compound,measurement,setting,value
"OC[C@H]1O[C@@](CO)(O[C@H]2O[C@H](CO)[C@@H](O)[C@H](O)[C@H]2O)[C@@H](O)[C@@H]1O [5% Sucrose, sucrose]",time after which sticky clumps were invaded by fungi and bacteria,0.5% solution,48 h
same,cell replication / tissue formation observed,"0.5% solution, isolated epithelial cells, ambient temperature",Rapid cell replication was observed in form of sticky clumps with no distinct differentiation into tissue formation
same,Potential for Tissue Growth,ambient temperature (24° C.),sticky lump
